pKi: −log10 of the molar value. Where a name gives a salt, the structure may show the parent alone.
Biological target: α7 nAChR (Rattus norvegicus, UniProt Q05941)
Experiment: [3H]-MLA competition binding assay, rat brain membranes

α7 nAChR, sequence (Q05941 23-502): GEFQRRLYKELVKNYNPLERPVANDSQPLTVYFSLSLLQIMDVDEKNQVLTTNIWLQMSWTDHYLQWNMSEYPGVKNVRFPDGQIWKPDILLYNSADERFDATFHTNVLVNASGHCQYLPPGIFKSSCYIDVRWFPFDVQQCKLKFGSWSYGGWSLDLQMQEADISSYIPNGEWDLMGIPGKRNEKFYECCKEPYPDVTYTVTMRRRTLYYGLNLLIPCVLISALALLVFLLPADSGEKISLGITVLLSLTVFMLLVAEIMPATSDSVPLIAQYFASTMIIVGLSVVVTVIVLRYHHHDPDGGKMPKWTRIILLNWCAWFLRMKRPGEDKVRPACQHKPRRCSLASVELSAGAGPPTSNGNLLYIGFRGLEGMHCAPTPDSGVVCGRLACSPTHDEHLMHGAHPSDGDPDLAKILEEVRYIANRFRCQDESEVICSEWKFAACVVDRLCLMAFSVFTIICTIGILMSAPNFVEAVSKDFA

SMILES | pKi
COc1ccc(C(=O)N[C@H]2CN3CCC2CC3)s1 [Example 19, N-[(3R)-1-Azabicyclo[2.2.2]oct-3-yl]-5-methoxy-thiophene-2-carboxamide Hydrochloride] | 8.40 to 8.70
O=C(N[C@H]1CN2CCC1CC2)c1ccc(-c2ccccc2O)s1 [Example 41, N-[(3R)-1-Azabicyclo[2.2.2]oct-3-yl]-5-(2-hydroxyphenyl)-thiophene-2-carboxamide Hydrochloride] | 8.40 to 8.52

From US6492385B2, “Quinuclidine-substituted heteroaryl moieties for treatment of disease” (Pharmacia & Upjohn Company, priority 2000, dated 2002)
